Experimental data: patent US20180161310A1, “COMPOUNDS AND METHODS FOR THE TREATMENT OF NEUROLOGICAL DISORDERS” (Teleos Therapeutics, LLC, priority 2016, published 2018)
Values joined by “and” are separate entries in the source; they are usually repeats but may differ in a detail not shown here. Identical values can stand only once.

Columns and labels:
human KCC2 = molecular target: T1, human KCC2 (Homo sapiens, UniProt Q9H2X9); experiment: Thallium flux assay in HEK293 cells transiently transfected with human KCC2; format: cell-based; settings: HEK293 cells over-expressing human KCC2
T1 construct: expressed in transfected cells; host or cells: HEK293
T1 sequence (Q9H2X9 1-1139): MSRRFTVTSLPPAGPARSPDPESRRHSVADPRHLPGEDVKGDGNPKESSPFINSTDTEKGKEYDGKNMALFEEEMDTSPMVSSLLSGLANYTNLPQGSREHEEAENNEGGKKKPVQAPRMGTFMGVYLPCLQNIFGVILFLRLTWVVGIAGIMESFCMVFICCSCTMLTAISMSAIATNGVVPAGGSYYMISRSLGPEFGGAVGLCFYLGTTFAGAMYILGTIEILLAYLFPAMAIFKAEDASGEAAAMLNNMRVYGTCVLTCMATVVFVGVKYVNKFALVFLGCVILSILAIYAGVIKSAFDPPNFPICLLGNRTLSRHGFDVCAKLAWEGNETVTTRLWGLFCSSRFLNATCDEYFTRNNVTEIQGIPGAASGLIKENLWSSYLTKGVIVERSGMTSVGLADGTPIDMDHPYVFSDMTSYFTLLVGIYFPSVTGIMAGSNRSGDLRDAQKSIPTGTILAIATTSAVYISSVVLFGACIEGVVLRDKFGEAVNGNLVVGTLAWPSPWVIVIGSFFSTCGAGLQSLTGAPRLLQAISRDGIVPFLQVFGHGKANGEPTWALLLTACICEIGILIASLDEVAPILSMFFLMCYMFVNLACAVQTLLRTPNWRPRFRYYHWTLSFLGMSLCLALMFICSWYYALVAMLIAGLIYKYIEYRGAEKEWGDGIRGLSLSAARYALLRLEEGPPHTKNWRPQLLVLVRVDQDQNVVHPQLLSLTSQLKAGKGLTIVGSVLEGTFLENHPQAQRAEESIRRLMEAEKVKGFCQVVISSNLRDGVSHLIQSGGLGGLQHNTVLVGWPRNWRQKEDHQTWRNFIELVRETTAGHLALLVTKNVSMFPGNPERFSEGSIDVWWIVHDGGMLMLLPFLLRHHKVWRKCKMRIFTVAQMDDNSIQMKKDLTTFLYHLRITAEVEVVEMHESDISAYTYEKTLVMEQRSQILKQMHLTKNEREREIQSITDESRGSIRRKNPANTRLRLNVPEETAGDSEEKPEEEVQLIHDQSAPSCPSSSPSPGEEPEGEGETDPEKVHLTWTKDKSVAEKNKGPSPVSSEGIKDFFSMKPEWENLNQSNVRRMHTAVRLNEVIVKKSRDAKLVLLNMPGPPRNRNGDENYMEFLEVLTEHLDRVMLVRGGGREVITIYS
Procedure: Phenotype-based screens, as described herein, are high-content and make use of complex behaviors to identify novel modulators, which may function through various mechanisms. Thus, hits identified in the suppressor screens described herein may or may not act directly on KCC2. To test whether the three hit compounds directly alter the activity of the transporter, thallium flux assays were performed in HEK293 cells transiently transfected with human KCC2 in order to measure the influx rate of KCC2 activity (see, e.g., Appendix B).

zebrafish larvae = format: in vivo
Excerpt: In an effort to determine how pharmacological inhibition of KCC2 affects zebrafish behaviors, 7 days post-fertilization (dpf) zebrafish larvae can be treated with two analogs of the selective KCC2 inhibitor, VU0463271 and VU0240551, and their behavioral responses in a battery of behavioral assays can be assessed. These behavioral assays can include a series of visual and acoustic stimuli presented to larval zebrafish in various contexts and combinations to elicit robust and reproducible patterns of activity. For example, behavioral assays can include two acoustic-stimulus-response (ASR1 and ASR2) assays, six visual-stimulus-response (VSR1-VSR6) assays, and three assays that combine acoustic and visual stimulus responses (AVSR1-AVSR3). Together, such a battery of behavioral assays use six stimuli, including red light (600 nm), blue light (420 nm), violet light (405 nm), green light (525 nm), low-intensity sound (60 dB) and high-intensity sound (70 dB). Behavioral responses of the larval zebrafish can be measured by a motion index (MI) that quantifies the motor activity of at least about 8 zebrafish larvae in each well of a 96-well plate.
Referring to FIGS. 1A-1B, zebrafish behavioral profiles can include a battery of individual behavioral assays labeled ASR1, AVSR1, ASR2, VSR1, VSR2, VSR3, VSR4, AVSR2, VSR5, AVSR3, and VSR6, as described herein. These behavioral assays can be combined to form a Motion Index (MI), which is a quantification of the motor activity of at least about 8 zebrafish larvae in each well of a 96-well plate. As shown in the representative images of FIGS. 1A-1B, zebrafish larvae were treated with DMSO (control), VU0463271 (FIG. 1A), or pentylentetrazol or PTZ (FIG. 1B).
Treatment with increasing doses of VU0463271 induced a unique and dose-dependent profile of behavioral responses, detectable at 2.5 μM and 5 μM. […] This relatively low concentration of VU0463271 elicited a reproducible behavioral profile with altered sensitivity of the fish larvae to specific combinations of stimuli. […] The increased MI in the AVSR1 and AVSR3 assays due to VU0463271 treatment reflects a seizure-like hyperexcitability in the larval fish.
Additionally, seizures have been induced in 7 dpf zebrafish larvae using pentylentetrazol (PTZ) treatment, and motor and electroencephalographic (EEG) responses were consistent with seizure phenotypes.

CCN1C(=O)C=CC1=O [N-ethylmaleimide]
rate of 10 mM [K+]o-induced thallium influx (KCC2-mediated flux) (human KCC2): significantly increased

Cc1csc(N(C(=O)CSc2ccc(-c3ccccc3)nn2)C2CC2)n1 [VU0463271, N-Cyclopropyl-N-(4-methyl-2-thiazolyl)-2-[(6-phenyl-3-pyridazinyl)thio]acetamide]
rate of 10 mM [K+]o-induced thallium influx (KCC2-mediated flux) (human KCC2): significantly reduced | MI in the ASR2 and VSR assays (zebrafish larvae; 2.5 μM): reduced | behavioral responses in the AVSR1 and AVSR3 assays (zebrafish larvae; 2.5 μM, seizure-like hyperexcitability): increased | effect on MI along the assay battery (zebrafish larvae; 10 μM, very low MI): sedative effect | concentration at which the dose-dependent profile of behavioral responses was detectable (zebrafish larvae; 7 dpf larvae): 2.5 µM and 5 µM
